Measured values taken from patent publication US12344603B2 (Genentech, Inc., priority 2020, dated 2025).
Counter-ions that a name gives are not always drawn.

Target: IRE1α (Homo sapiens (Human), UniProt O75460, D688N)
Assay: IRE1α TR-FRET competition binding assay (IRE1α HTRF)
Conditions: TR-FRET competition binding to kinase domain of IRE1α
Method in brief: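 Competition of compounds against an Alexa fluor 647 ATP-site probe (2 nM final) for the His-tagged kinase domain (0.25 nM final), detected via 2 nM Eu anti-His antibody by TR-FRET, 665 and 615 nm emission. Protein–antibody premix 1 h, 4° C; reaction 1 h, room temperature, pH 7.5 HEPES buffer.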

IRE1α, sequence (O75460 547-977 D688N): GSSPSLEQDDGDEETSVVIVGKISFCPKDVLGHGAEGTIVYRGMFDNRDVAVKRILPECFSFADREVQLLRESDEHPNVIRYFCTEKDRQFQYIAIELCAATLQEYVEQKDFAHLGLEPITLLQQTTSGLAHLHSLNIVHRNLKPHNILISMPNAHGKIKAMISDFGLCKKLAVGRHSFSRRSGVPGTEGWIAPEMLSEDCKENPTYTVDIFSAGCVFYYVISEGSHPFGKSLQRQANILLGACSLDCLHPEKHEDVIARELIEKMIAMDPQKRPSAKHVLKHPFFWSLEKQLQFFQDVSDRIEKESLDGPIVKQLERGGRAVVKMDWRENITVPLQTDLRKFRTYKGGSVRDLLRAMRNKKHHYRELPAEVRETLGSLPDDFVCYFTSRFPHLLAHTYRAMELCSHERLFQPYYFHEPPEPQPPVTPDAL

Structure (SMILES) | IC50 [nM]
COCCN(C)[C@H]1CC[C@H](Nc2ncc3cc(-c4ccc(NS(=O)(=O)CCC(F)(F)F)nc4)c(=O)n(C(C)C)c3n2)CC1 [Compound 126, 3,3,3-Trifluoro-N-(5-(8-isopropyl-2-(((1r,4r)-4-((2-methoxyethyl)(methyl)amino)cyclohexyl)amino)-7-oxo-7,8-dihydropyrido[2,3-d]pyrimidin-6-yl)pyridin-2-yl)propane-1-sulfonamide] | 0.24
CC(C)n1c(=O)c(-c2cc(F)c(NS(=O)(=O)CCC(C)(F)F)c(F)c2)nc2cnc(N[C@H]3CC[C@H](N(C)C)CC3)nc21 [Example 241, N-[4-[2-[[4-(Dimethylamino)cyclohexyl]amino]-8-isopropyl-7-oxo-pteridin-6-yl]-2,6-difluoro-phenyl]-3,3-difluoro-butane-1-sulfonamide] | 0.2
CC(C)n1c(=O)c(-c2ccc(NS(=O)(=O)Cc3ccccc3)c(F)c2)nc2cnc(N[C@H]3CC[C@H](N(C)CCF)CC3)nc21 [Compound 183, N-(2-fluoro-4-(2-(((1r,4r)-4-((2-fluoroethyl)(methyl)amino)cyclohexyl)amino)-8-isopropyl-7-oxo-7,8-dihydropteridin-6-yl)phenyl)-1-phenylmethanesulfonamide] | 0.12
CCCS(=O)(=O)Nc1ccc(-c2nc3cnc(N[C@@H]4CNC[C@@H](F)C4)nc3n(C(C)C)c2=O)cc1F [Compound 82, N-[2-Fluoro-4-[2-[[(3S,5S)-5-fluoro-3-piperidyl]amino]-8-isopropyl-7-oxo-pteridin-6-yl]phenyl]propane-1-sulfonamide] | 0.8
CC(C)n1c(=O)c(-c2cc(F)c(NS(=O)(=O)Cc3ccc(C(F)F)cc3)c(F)c2)cc2cnc(N[C@H]3CC[C@H](N(C)C)CC3)nc21 [Compound 125, 1-(4-(Difluoromethyl)phenyl)-N-(4-(2-(((1r,4r)-4-(dimethylamino)cyclohexyl)amino)-8-isopropyl-7-oxo-7,8-dihydropyrido[2,3-d]pyrimidin-6-yl)-2,6-difluorophenyl)methanesulfonamide] | 0.19
COc1nc(NS(=O)(=O)c2ccccc2Cl)ccc1-c1nc2cnc(N[C@H]3CC[C@H](N(C)C)CC3)nc2n(C(C)C)c1=O [Compound 173, 2-Chloro-N-(5-(2-(((1r,4r)-4-(dimethylamino)cyclohexyl)amino)-8-isopropyl-7-oxo-7,8-dihydropteridin-6-yl)-6-methoxypyridin-2-yl)benzenesulfonamide] | 0.27
CC(C)n1c(=O)c(-c2ccc(NS(=O)(=O)Cc3ccccc3F)nc2)nc2cnc(N[C@@H]3CNC[C@@H](F)C3)nc21 [Example 237, 1-(2-Fluorophenyl)-N-[5-[2-[[(3S,5S)-5-fluoro-3-piperidyl]amino]-8-isopropyl-7-oxo-pteridin-6-yl]-2-pyridyl]methanesulfonamide] | 0.3
CC(C)n1c(=O)c(-c2ccc(NS(=O)(=O)CC3CCC(F)(F)CC3)c(F)c2)nc2cnc(N[C@H]3CC[C@H](N(C)C)CC3)nc21 [Example 271, 1-(4,4-Difluorocyclohexyl)-N-[4-[2-[[4-(dimethylamino)cyclohexyl]amino]-8-isopropyl-7-oxo-pteridin-6-yl]-2-fluoro-phenyl]methanesulfonamide] | 0.2
CC(C)n1c(=O)c(-c2cnc(NS(=O)(=O)CCC(F)(F)F)c(F)c2)cc2cnc(N[C@H]3CC[C@H](N(C)C)CC3)nc21 [Example 222, N-(5-(2-(((1r,4r)-4-(dimethylamino)cyclo-hexyl)amino)-8-isopropyl-7-oxo-7,8-dihydropyrido[2,3-d]-pyrimidin-6-yl)-3-fluoropyridin-2-yl)-3,3,3-trifluoropropane-1-sulfonamide] | 0.3
CC(C)n1c(=O)c(-c2ccc(NS(=O)(=O)CC3CC(F)(F)C3)c(F)c2)nc2cnc(N[C@H]3CC[C@H](N(C)CCF)CC3)nc21 [Compound 180, 1-(3,3-Difluorocyclobutyl)-N-(2-fluoro-4-(2-(((1r,4r)-4-((2-fluoroethyl)(methyl)amino)cyclohexyl)amino)-8-isopropyl-7-oxo-7,8-dihydropteridin-6-yl)phenyl)methanesulfonamide] | 0.29
CC(C)n1c(=O)c(-c2cc(F)c(NS(=O)(=O)CC3(C(F)(F)F)CC3)c(F)c2)nc2cnc(N[C@H]3CC[C@H](N(C)C)CC3)nc21 [Example 240, N-[4-[2-[[4-(Dimethylamino)cyclohexyl]amino]-8-isopropyl-7-oxo-pteridin-6-yl]-2,6-difluoro-phenyl]-1-[1-(trifluoromethyl)cyclopropyl]methanesulfonamide] | 0.1
CC(C)n1c(=O)c(-c2ccc(NS(=O)(=O)c3ccccc3Cl)nc2)nc2cnc(N[C@H]3CC[C@H](N(C)CCF)CC3)nc21 [Compound 188, 2-Chloro-N-(5-(2-(((1r,4r)-4-((2-fluoroethyl)(methyl)amino)cyclohexyl)amino)-8-isopropyl-7-oxo-7,8-dihydropteridin-6-yl)pyridin-2-yl)benzenesulfonamide hydrochloride] | 0.27
CC(C)n1c(=O)c(-c2ccc(NS(=O)(=O)CCC(F)(F)F)c(F)c2)cc2cnc(NC3CCC(O)C(N(C)C)C3)nc21 (stereo not drawn) [Example 225, N-(4-(2-((3-(Dimethylamino)-4-hydroxycyclohexyl)amino)-8-isopropyl-7-oxo-7,8-dihydropyrido[2,3-d]pyrimidin-6-yl)-2-fluorophenyl)-3,3,3-trifluoropropane-1-sulfonamide] | 5.4
CC(C)n1c(=O)c(-c2ccc(NS(=O)(=O)c3ccccc3Cl)nc2)cc2cnc(N[C@@H]3CNC[C@@H](F)C3)nc21 [Compound 147, 2-Chloro-N-(5-(2-(((3S,5S)-5-fluoropiperidin-3-yl)amino)-8-isopropyl-7-oxo-7,8-dihydropyrido[2,3-d]pyrimidin-6-yl)pyridin-2-yl)benzenesulfonamide] | 0.27
CC(C)n1c(=O)c(-c2ccc(NS(=O)(=O)CCC(F)(F)F)c(F)c2)nc2cnc(N[C@H]3CC[C@H](N(C)C)[C@@H](F)C3)nc21 (stereo in doubt) [Compound 179A, N-(4-(2-((4-(Dimethylamino)-3-fluorocyclohexyl)amino)-8-isopropyl-7-oxo-7,8-dihydropteridin-6-yl)-2-fluorophenyl)-3,3,3-trifluoropropane-1-sulfonamide] | 0.22
Cn1c(=O)c(-c2ccc(NS(=O)(=O)Cc3ccccc3)c(F)c2F)cc2cnc(N[C@H]3CCCNC3)nc21 [Compound 1, (S)—N-(2,3-Difluoro-4-(8-methyl-7-oxo-2-(piperidin-3-ylamino)-7,8-dihydropyrido[2,3-d]pyrimidin-6-yl)phenyl)-1-phenylmethanesulfonamide] | 2.8
CC(C)n1c(=O)c(-c2ccc(NS(=O)(=O)Cc3ccccc3)c(F)c2F)cc2cnc(N[C@@H]3CNC[C@@H](F)C3)nc21 [Compound 9, N-(2,3-Difluoro-4-(2-(((3S,5S)-5-fluoropiperidin-3-yl)amino)-8-isopropyl-7-oxo-7,8-dihydropyrido[2,3-d]pyrimidin-6-yl)phenyl)-1-phenylmethanesulfonamide] | 0.28
Cc1nc(NS(=O)(=O)c2ccccc2Cl)ccc1-c1nc2cnc(N[C@H]3CC[C@H](N(C)CCF)CC3)nc2n(C(C)C)c1=O [Compound 195, 2-Chloro-N-(5-(2-(((1r,4r)-4-((2-fluoroethyl)(methyl)amino)cyclohexyl)amino)-8-isopropyl-7-oxo-7,8-dihydropteridin-6-yl)-6-methylpyridin-2-yl)benzenesulfonamide] | 0.29
Cc1nc(NS(=O)(=O)c2ccccc2Cl)ccc1-c1cc2cnc(N[C@H]3CC[C@H](N(C)C)CC3)nc2n(C(C)C)c1=O [Compound 135, 2-Chloro-N-(5-(2-(((1r,4r)-4-(dimethylamino)cyclohexyl)amino)-8-isopropyl-7-oxo-7,8-dihydropyrido[2,3-d]pyrimidin-6-yl)-6-methylpyridin-2-yl)benzenesulfonamide] | 0.43
Cc1nc(NS(=O)(=O)c2ccccc2C#N)ccc1-c1nc2cnc(N[C@H]3CC[C@H](N(C)C)CC3)nc2n(C(C)C)c1=O [Example 255, N-[5-[2-[[4-(Dimethylamino)cyclohexyl]amino]-8-isopropyl-7-oxo-pteridin-6-yl]-6-methyl-2-pyridyl]-2-cyano-benzenesulfonamide] | 0.2
CC(C)n1c(=O)c(-c2ccc(NS(=O)(=O)Cc3ccc(F)cc3)c(F)c2)nc2cnc(N[C@H]3CC[C@H](N(C)CCF)CC3)nc21 [Compound 176, N-(2-Fluoro-4-(2-(((1r,4r)-4-((2-fluoroethyl)(methyl)amino)cyclohexyl)amino)-8-isopropyl-7-oxo-7,8-dihydropteridin-6-yl)phenyl)-1-(4-fluorophenyl)methanesulfonamide] | 0.14
CC(C)n1c(=O)c(-c2ccc(NS(=O)(=O)Cc3ccccc3C#N)c(F)c2)nc2cnc(N[C@@H]3CNC[C@@H](F)C3)nc21 [Compound 80, 1-(2-Cyanophenyl)-N-[2-fluoro-4-[2-[[(3S,5S)-5-fluoro-3-piperidyl]amino]-8-isopropyl-7-oxo-pteridin-6-yl]phenyl]methanesulfonamide] | 0.2
CC(C)n1c(=O)c(-c2ccc(NS(=O)(=O)CC3CC(F)(F)C3)c(F)c2)cc2cnc(N[C@H]3CC[C@H](N(C)C)CC3)nc21 [Compound 151, 1-(3,3-Difluorocyclobutyl)-N-(4-(2-(((1r,4r)-4-(dimethylamino)cyclohexyl)amino)-8-isopropyl-7-oxo-7,8-dihydropyrido[2,3-d]pyrimidin-6-yl)-2-fluorophenyl)methanesulfonamide] | 0.19
CC(C)n1c(=O)c(-c2ccc(NS(=O)(=O)Cc3ccccc3)c(F)c2)nc2cnc(N[C@H]3CC[C@H](N(C)C)CC3)nc21 [Compound 68, N-(4-(2-(((1r,4r)-4-(Dimethylamino)cyclohexyl)amino)-8-isopropyl-7-oxo-7,8-dihydropteridin-6-yl)-2-fluorophenyl)-1-phenylmethanesulfonamide] | 0.13
